Experimental findings from US20240199702A1, “CELL-PERMEABLE CYCLIC PEPTIDES AND USES THEREOF” (Unnatural Products Inc., priority 2021, published 2024) are described below.

Assay [1] concerns the target T1, Human MDM2 (HDM2) 1-116 (Homo sapiens, UniProt Q00987).
T1 construct: Human MDM2 (HDM2) 1-116
Description: Fluorescence Polarization Assay 1 (MDM2/p53 peptide). The class given is binding. Particulars: FAM-labeled p53 peptide, 60 minutes. As for the experimental part: Fluorescence Polarization Assay 1
(§1) Human MDM2 (HDM2) 1-116 (20 μL) and FAM-labeled GGTSFAEYWNLLSP-NH2, 10 nM and 5 nM respectively in 10 mM Tris, 50 mM NaCl, 0.01% Tween20, and 1 mM DTT at pH 7.4 were dispensed into an opaque, black, 384 well plate. Compounds dissolved in DMSO were pin transferred (˜100-200 nL) to the 384 well plate containing the MDM2/p53 solution. After incubation for 60 minutes, the fluorescence polarization was read on a Molecular Devices SpectraMax plate reader equipped with a Fluorescein FP cartridge. In addition to probe alone (positive control) and probe/MDM2 (negative control), a titration of linear p53(18-26) was included on every plate as an additional control. IC50 values were fit using either Prism or Collaborative Drug Discovery.
Background: Fluorescence polarisation rises when a labelled molecule tumbles more slowly, as on binding a larger partner.

Assay [2] concerns the target T2, Human MDM4 (HDM4) 1-114 (Homo sapiens, UniProt O15151).
T2 construct: Human MDM4 (HDM4) 1-114
T2 sequence (O15151 1-114): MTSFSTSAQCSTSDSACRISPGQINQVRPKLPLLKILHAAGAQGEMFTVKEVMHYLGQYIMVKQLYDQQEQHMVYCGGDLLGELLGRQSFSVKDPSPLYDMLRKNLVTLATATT
Kind of assay: Fluorescence Polarization Assay 2 (MDM4/p53 peptide). Particulars: FAM-labeled p53 peptide, 60 minutes. It counts as binding. How it is done:
Fluorescence Polarization Assay 2
as §1, with “MDM4 (HDM4) 1-114” for “MDM2 (HDM2) 1-116”, “GGTSFAEYWNLLSP —NH2, 20” for “GGTSFAEYWNLLSP-NH2, 10”, “(−100-200” for “(˜100-200”, “MDM4/p53” for “MDM2/p53”, “probe/MDM4” for “probe/MDM2”

The subject of assay [3] is MOLM-13 cells. Kind of assay: Cellular Fluorescence Assay 1 (CellTiter-Glo, 72 hours). It counts as cell-based. How it is done:
Cellular Fluorescence Assay 1
(§2) MOLM-13 cells were grown in suspension in T75 flasks in RPMI medium with 10% fetal bovine serum (FBS) at 37° C. with 5% CO2. 40 μL ofMOLM-13 cells were plated into columns 1-22 of white, flat bottom, 384 well plates at a density of 1,000 cells per well in RPMI with 10% FBS. Columns 23 and 24 were filled with 40 μL of media as a positive control. 100 nL of compounds dissolved in DMSO were pin transferred into columns 3-22 of the 384 well plate. Columns 1 and 2 served as negative control wells. Plates were incubated for 72 hours at 37° C. with 5% CO2. After incubation, the cells were given 10 μL of CellTiter-Glo® (Promega®). Luminescence was read on a Molecular Devices SpectraMax i3x plate reader.
In general terms: Cellular ATP, detected with luciferase, serves as a proxy for viable cell number.

In assay [4] the test system is MV4-11 cells. Description: Cellular Fluorescence Assay 2 (CellTiter-Glo, 72 hours). The class given is cell-based. As for the experimental part: Cellular Fluorescence Assay 2
as §2, with “MV4-11” for “MOLM-13”, “of MV4-11” for “ofMOLM-13”

In assay [5] the test system is WaGa cells. Description: Cellular Fluorescence Assay 3 (CellTiter-Glo, 72 hours). It counts as cell-based. How it is done:
Cellular Fluorescence Assay 3
as §2, with “WaGa” for “MOLM-13”, “of WaGa” for “ofMOLM-13”

The subject of assay [6] is MKL-1 cells. Description: Cellular Fluorescence Assay 4 (CellTiter-Glo, 72 hours). It counts as cell-based. How it is done:
Cellular Fluorescence Assay 4
as §2, with “MKL-1” for “MOLM-13”, “MKL-1” for “ofMOLM-13”, “reader. In some embodiments, the cyclic peptide described herein is a cyclic peptide depicted in Table 1: […]” for “reader.”

A word on the IC50: it is the concentration that gives 50% inhibition. A low value points to inhibition by little substance.

*1 amine or outer side, *2 acyl side, *3 side chain or, on linkers, in order; H or OH if unused. Where a SMILES comes first, the peptide text is derived from it. [ ]: non-standard residue; d: D form. The star is where a group is joined. Ala(thiazol-5-yl) = N[C@@H](Cc1cncs1)C(=O)O; Ala(4-thiazolyl) = N[C@@H](Cc1cscn1)C(=O)O; NMePhe(4-F) = CN[C@@H](Cc1ccc(F)cc1)C(=O)O; Phe(4-Cl) = N[C@@H](Cc1ccc(Cl)cc1)C(=O)O; Phe(4-F) = N[C@@H](Cc1ccc(F)cc1)C(=O)O; X2 = CC1(C)CN([*:1])[C@@H]1C(=O)[*:2]; NMeF = CN[C@@H](Cc1ccccc1)C(=O)O; NMeNva = CCC[C@H](NC)C(=O)O; NMeV = CN[C@H](C(=O)O)C(C)C; Methoxyacetyl = COCC(=O)*; hSer = N[C@@H](CCO)C(=O)O; NMeA = CN[C@@H](C)C(=O)O; dNMeA = CN[C@H](C)C(=O)O; Aze = O=C(O)[C@@H]1CCN1; Butyryl = CCCC(=O)*; Nme = COCCNCC(=O)O; X1 = O=C(C(F)F)*; Sar = CNCC(=O)O

T1 sequence (Q00987 1-116): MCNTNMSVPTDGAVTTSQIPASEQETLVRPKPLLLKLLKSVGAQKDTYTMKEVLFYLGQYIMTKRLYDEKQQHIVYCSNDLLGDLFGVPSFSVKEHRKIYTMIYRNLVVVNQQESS

Consider `COCC[C@@H]1NC(=O)[C@H]2CCCN2C(=O)[C@H](Cc2ccc(F)cc2)N(C)C(=O)[C@H](Cc2ccc(Cl)cc2)NC(=O)[C@@H]2CCN2C(=O)[C@H](Cc2ccc(F)cc2)NC(=O)CN(CCOC)C(=O)[C@@H](C)N(C)C(=O)[C@H](Cc2cscn2)NC(=O)CN(C)C1=O` [compound 23] (cyclo([Ala(4-thiazolyl)][dNMeA][Nme][Phe(4-F)][Aze][Phe(4-Cl)][NMePhe(4-F)][dP][hSer](Me)[Sar])), for which the IC50 in assay [1] was 50 to 100 nM; in assay [2] it was 50 to 100 nM; in assay [3], no less than 150 nM; in assay [4] it was no less than 150 nM; in assay [5], no less than 150 nM; in assay [6], no less than 2000 nM.
On to `COCC[C@@H]1NC(=O)[C@H]2CCCN2C(=O)[C@H](Cc2ccccc2)N(C)C(=O)[C@H](Cc2ccc(Cl)cc2)NC(=O)[C@H](C(C)C)N(C)C(=O)[C@H](Cc2ccc(F)cc2)NC(=O)CN(C)C(=O)[C@@H](C)N(C)C(=O)[C@H](Cc2cncs2)NC(=O)[C@H](C)N(C)C1=O` [compound 27] (cyclo([NMeA][Ala(thiazol-5-yl)][dNMeA][Sar][Phe(4-F)][NMeV][Phe(4-Cl)][NMeF][dP][hSer](Me))), for which the half-maximal inhibitory concentration (IC50) in assay [1] was less than 25 nM; in assay [2], no less than 100 nM; in assay [3], no less than 150 nM; in assay [4], 100 to 150 nM; in assay [5] it was 100 to 150 nM; in assay [6] it was 500 to 1000 nM.
As for `COCC[C@@H]1NC(=O)[C@H]2CCCN2C(=O)[C@H](Cc2ccccc2)N(C)C(=O)[C@H](Cc2ccc(Cl)cc2)NC(=O)[C@H](C(C)C)N(C)C(=O)[C@H](Cc2ccc(F)cc2)NC(=O)[C@H](C)N(C)C(=O)[C@@H](C)N(C)C(=O)[C@H](Cc2cncs2)NC(=O)[C@H](C)N(C)C1=O` [compound 26] (cyclo([NMeA][Phe(4-F)][NMeV][Phe(4-Cl)][NMeF][dP][hSer](Me)[NMeA][Ala(thiazol-5-yl)][dNMeA])), the IC50 in assay [1] was less than 25 nM; in assay [2], 50 to 100 nM; in assay [3], 100 to 150 nM; in assay [4], 50 to 100 nM; in assay [5], 100 to 150 nM; in assay [6] it was 500 to 1000 nM.
For `COCC[C@@H]1NC(=O)[C@H]2CCCN2C(=O)[C@H](Cc2ccc(F)cc2)N(C)C(=O)[C@H](Cc2ccc(Cl)cc2)NC(=O)[C@H]2N(CC2(C)C)C(=O)[C@H](Cc2ccc(F)cc2)NC(=O)CN(CCOC)C(=O)[C@@H](C)N(C)C(=O)[C@H](Cc2cscn2)NC(=O)[C@H](C)N(C)C1=O` [compound 11] (cyclo([Ala(4-thiazolyl)][dNMeA][Nme][Phe(4-F)][X2][Phe(4-Cl)][NMePhe(4-F)][dP][hSer](Me)[NMeA])), the half-maximal inhibitory concentration (IC50) was less than 25 nM in assay [1], less than 25 nM in assay [2], no less than 150 nM in assay [3] and 100 to 150 nM in assay [4].
Consider `CCC[C@H]1C(=O)N[C@@H](Cc2ccc(F)cc2)C(=O)N(C)[C@@H](C(C)C)C(=O)N[C@@H](Cc2ccc(Cl)cc2)C(=O)N(C)[C@@H](Cc2ccccc2)C(=O)N2CCC[C@@H]2C(=O)N[C@@H](CCOC)C(=O)N(C)[C@@H](C)C(=O)N[C@@H](Cc2cncs2)C(=O)N(C)[C@H](C)C(=O)N1C` [compound 28] (cyclo([NMeA][Ala(thiazol-5-yl)][dNMeA][NMeNva][Phe(4-F)][NMeV][Phe(4-Cl)][NMeF][dP][hSer](Me))), for which the IC50 in assay [1] is less than 25 nM; in assay [2], no less than 100 nM; in assay [3], no less than 150 nM; in assay [4], 100 to 150 nM; in assay [5], no less than 150 nM; in assay [6] it was 1000 to 2000 nM.
Turning to `COCC[C@@H]1NC(=O)[C@H]2CCCN2C(=O)[C@H](Cc2ccc(F)cc2)N(C)C(=O)[C@H](Cc2ccc(Cl)cc2)NC(=O)[C@@H]2CCN2C(=O)[C@H](Cc2ccc(F)cc2)NC(=O)CN(CCOC)C(=O)[C@@H](C)N(C)C(=O)[C@H](Cc2cscn2)NC(=O)[C@H](C(C)C)N(C)C1=O` [compound 22] (cyclo([Ala(4-thiazolyl)][dNMeA][Nme][Phe(4-F)][Aze][Phe(4-Cl)][NMePhe(4-F)][dP][hSer](Me)[NMeV])), the IC50 in assay [1] is 25 to 50 nM; in assay [2] it was 25 to 50 nM; in assay [3] it was no less than 150 nM; in assay [4] it was 50 to 100 nM; in assay [5] it was 50 to 100 nM; in assay [6], less than 500 nM.
For `CCCC(=O)O[C@H](C)[C@@H]1NC(=O)[C@H](Cc2ccc(F)cc2)NC(=O)CN(CCOC)C(=O)[C@@H](C)N(C)C(=O)[C@H](Cc2cscn2)NC(=O)[C@H](C)N(C)C(=O)[C@H](CCOC)NC(=O)[C@H]2CCCN2C(=O)[C@H](Cc2ccccc2)N(C)C(=O)[C@H](Cc2ccc(Cl)cc2)NC1=O` [compound 6] (cyclo([Ala(4-thiazolyl)][dNMeA][Nme][Phe(4-F)]T(Butyryl)[Phe(4-Cl)][NMeF][dP][hSer](Me)[NMeA])), the half-maximal inhibitory concentration (IC50) was 25 to 50 nM in assay [1]; 50 to 100 nM in assay [2]; 50 to 100 nM in assay [3]; less than 50 nM in assay [4]; less than 50 nM in assay [5]; less than 500 nM in assay [6].
Turning to `COCC[C@@H]1NC(=O)[C@H]2CCCN2C(=O)[C@H](Cc2ccccc2)N(C)C(=O)[C@H](Cc2ccc(Cl)cc2)NC(=O)[C@H]([C@@H](C)OC(=O)COC)NC(=O)[C@H](Cc2ccc(F)cc2)NC(=O)CN(CCOC)C(=O)[C@@H](C)N(C)C(=O)[C@H](Cc2cscn2)NC(=O)[C@H](C)N(C)C1=O` [compound 4] (cyclo([Ala(4-thiazolyl)][dNMeA][Nme][Phe(4-F)]T(Methoxyacetyl)[Phe(4-Cl)][NMeF][dP][hSer](Me)[NMeA])), the values for the IC50 in assay [1] and in assay [2] were less than 25 nM and 25 to 50 nM, respectively.
As for `COCC[C@@H]1NC(=O)[C@H]2CCCN2C(=O)[C@H](Cc2ccccc2)N(C)C(=O)[C@H](Cc2ccc(Cl)cc2)NC(=O)[C@H]([C@@H](C)OC(=O)C(F)F)NC(=O)[C@H](Cc2ccc(F)cc2)NC(=O)CN(CCOC)C(=O)[C@@H](C)N(C)C(=O)[C@H](Cc2cscn2)NC(=O)[C@H](C)N(C)C1=O` [compound 7] (cyclo([Ala(4-thiazolyl)][dNMeA][Nme][Phe(4-F)]T(X1)[Phe(4-Cl)][NMeF][dP][hSer](Me)[NMeA])), the half-inhibitory concentration (IC50) is 25 to 50 nM in assay [1] and 50 to 100 nM in assay [2].
